Reference: ChEMBL document CHEMBL4715854, “Discovery of Roblitinib (FGF401) as a Reversible-Covalent Inhibitor of the Kinase Activity of Fibroblast Growth Factor Receptor 4” (J Med Chem, 2020)
Values after ≈ are worked out from the molar mass of the structure shown.

Key:
[1] = Permeability of the compound in human Caco-2 cells assessed as compound recovery at 10 uM measured after 2 hrs by LC/MS/MS analysis; format: ADME, cell-based; conditions: read-out: Drug recovery
[2] = Drug metabolism in rat liver microsome assessed as reduction of aldehyde group at 10 mM measured after 15 mins in presence of NADPH by LC-MS analysis; format: ADME; conditions: microsomes, 10000 µM
[3] = Drug metabolism in human liver microsome assessed as reduction of aldehyde group at 10 mM measured after 15 mins in presence of NADPH by LC-MS analysis; format: ADME; conditions: microsomes, 10000 µM
[4] = Aqueous solubility of compound at pH 6.8; format: physicochemical; conditions: buffer, time 15 min
[5] = Lipophilicity, log D of the compound in 1-octanol at pH 7.4 by potentiometric titration method; format: physicochemical
[6] = Thermodynamic solubility of compound in phosphate buffer at pH 6.8 measured after 15 mins by shake-flask method based LC-HRMS analysis; format: physicochemical; conditions: read-out: Therm_solubility
[7] = Oral bioavailability in Crl:CD (SD) rat at 3 mg/kg measured upto 24 hrs by LC-MS/MS analysis; format: ADME, organism-based; conditions: Crl:CD (SD), in vivo
[8] = Clearance in Crl:CD (SD) rat at 1 mg/kg, iv or 3 mg/kg, po measured up to 24 hrs by LC-MS/MS analysis; format: ADME, organism-based; conditions: in vivo
[9] = Volume of distribution at steady state in Crl:CD (SD) rat at 1 mg/kg, iv or 3 mg/kg, po measured upto 24 hrs by LC-MS/MS analysis; format: ADME, organism-based; conditions: in vivo, read-out: Vdss
[10] = Half-life in Crl:CD (SD) rat at 1 mg/kg, iv or 3 mg/kg, po measured upto 24 hrs by LC-MS/MS analysis; format: ADME, organism-based; conditions: in vivo
[11] = Dose normalized AUC in Crl:CD (SD) rat at 3 mg/kg, po measured up to 24 hrs by LC-MS/MS analysis; format: ADME, organism-based; conditions: in vivo
[12] = Dose normalized AUC in Crl:CD (SD) rat at 1 mg/kg, iv measured up to 24 hrs by LC-MS/MS analysis; format: ADME, organism-based; conditions: in vivo
[13] = Oral bioavailability in Crl:CD (SD) rat at 3 mg/kg administered as nanosuspension formulated in CMC-5/Tween 80 measured up to 24 hrs by LC-MS/MS analysis; format: ADME, organism-based; conditions: in vivo

Row | recovery at 2 h, 10 µM [1] [%] | Drug metabolism [2] | Drug metabolism [3] | Compound | further results
1 | < 10 | Metabolite_Detected | Metabolite_Detected | COCCNc1cc(NC(=O)N2CCCc3cc(-c4cccnc4)c(C=O)nc32)ncc1C#N | 
2 | < 10 | Metabolite_Detected | Metabolite_Detected | COCCOc1cc(NC(=O)N2CCCc3cc(C(F)F)c(C=O)nc32)ncc1C#N | 
3 | < 10 | Metabolite_Detected | Metabolite_Detected | COCCOc1cc(NC(=O)N2CCCc3ccc(C=O)nc32)ncc1C#N | 
4 | < 10 | Metabolite_Detected | Metabolite_Detected | COCCNc1cc(NC(=O)N2CCCc3cc(C4CCOCC4)c(C=O)nc32)ncc1C#N | 
5 | < 10 | Metabolite_Detected | Metabolite_Detected | N#Cc1cnc(NC(=O)N2CCCc3cc(CO)c(C=O)nc32)cc1O[C@H]1CCOC1 | 
6 | < 10 | Metabolite_Detected | Metabolite_Detected | N#Cc1ccc(NC(=O)N2CCCc3cc(CC(=O)O)c(C=O)nc32)nc1 | 
7 | < 10 | Metabolite_Detected | Metabolite_Detected | N#Cc1ccc(NC(=O)N2CCCc3cc(CO)c(C=O)nc32)nc1 | 
8 | < 10 | Metabolite_Detected | Metabolite_Detected | COCCNc1cc(NC(=O)N2CCCc3cc(C4CCN(C5COC5)CC4)c(C=O)nc32)ncc1C#N | 
9 | < 10 | Metabolite_Detected | Metabolite_Detected | N#Cc1ccc(NC(=O)N2CCCc3cc(C4CC4)c(C=O)nc32)nc1 | 
10 | < 10 | Metabolite_Detected | Metabolite_Detected | COCCNc1cc(NC(=O)N2CCCc3cc(N4CCOCC4=O)c(C=O)nc32)ncc1C#N | 
11 | < 10 | Metabolite_Detected | Metabolite_Detected | COCCOc1cc(NC(=O)N2CCCc3cc(C(F)(F)F)c(C=O)nc32)ncc1C#N | 
12 | < 10 | Metabolite_Detected | Metabolite_Detected | CN(C)Cc1cc2c(nc1C=O)N(C(=O)Nc1ccc(C#N)cn1)CCC2 | 
13 | < 10 | Metabolite_Detected | Metabolite_Detected | CC(C)Oc1cc(NC(=O)N2CCCc3ccc(C=O)nc32)ncc1C#N | 
14 | < 10 | Metabolite_Detected | Metabolite_Detected | COCCOc1cc(NC(=O)N2CCCc3cc(COC)c(C=O)nc32)ncc1C#N | 
15 | < 10 | Metabolite_Detected | Metabolite_Detected | COCCOc1cc(NC(=O)N2CCCc3cc(CO)c(C=O)nc32)ncc1C#N | bioavailability [7]: 24%; clearance [8]: 52 mL/min/kg; Vd [9]: 2.5 L/kg; half-life [10]: 2 h; AUC/dose [11]: 194 nM·h; solubility thermodynamic at […] [6]: 11 µM (≈ 4.53 µg/mL)
16 | < 10 | Metabolite_Detected | Metabolite_Detected | N#Cc1cnc(NC(=O)N2CCCc3cc(CO)c(C=O)nc32)cc1O[C@@H]1CCOC1 | 
17 | < 10 | Metabolite_Detected | Metabolite_Detected | COCCNc1cc(NC(=O)N2CCCc3cc(C(F)F)c(C=O)nc32)ncc1C#N | bioavailability [7]: 7%; clearance [8]: 40 mL/min/kg; Vd [9]: 4.7 L/kg; half-life [10]: 2.3 h; AUC/dose [11]: 774 nM·h; AUC/dose [12]: 964 nM·h; bioavailability [13]: 80%; solubility thermodynamic at […] [6]: < 6 µM
18 | < 10 | Metabolite_Detected | Metabolite_Detected | COc1cc2c(nc1C=O)N(C(=O)Nc1ccc(C#N)cn1)CCC2 | 
19 | < 10 | Metabolite_Detected | Metabolite_Detected | COCCOc1cc(NC(=O)N2CCCc3cc(Br)c(C=O)nc32)ncc1C#N | 

The remaining lines, values behind:

Row | Compound | recovery at 2 h, 10 µM [1] [%] | Drug metabolism [2] | Drug metabolism [3] | further results
20 | N#Cc1cnc(NC(=O)N2CCCc3ccc(C=O)nc32)cn1 | < 10 | Metabolite_Detected | Metabolite_Detected | 
21 | CC(C)Oc1cc(NC(=O)N2CCc3ccc(C=O)nc32)ncc1C#N | < 10 | Metabolite_Detected | Metabolite_Detected | 
22 | N#Cc1ccc(NC(=O)N2CCCCc3ccc(C=O)nc32)nc1 | < 10 | Metabolite_Detected | Metabolite_Detected | 
23 | CC(=O)N(C)Cc1cc2c(nc1C=O)N(C(=O)Nc1ccc(C#N)cn1)CCC2 |  |  |  | solubility at […] [4]: 18 µM (≈ 7.06 µg/mL)
24 | O=Cc1ccc2c(n1)N(C(=O)Nc1ccc(C(F)(F)F)cn1)CCC2 | < 10 | Metabolite_Detected | Metabolite_Detected | logD [5]: 4.2; solubility thermodynamic at […] [6]: 4.9 µM (≈ 1.72 µg/mL)
25 | COCCNc1cc(NC(=O)N2CCCc3cc(-c4ccnn4C)c(C=O)nc32)ncc1C#N | < 10 | Metabolite_Detected | Metabolite_Detected | 
26 | CC1(O)CCN(c2cc(NC(=O)N3CCCc4ccc(C=O)nc43)ncc2C#N)CC1 | < 10 | Metabolite_Detected | Metabolite_Detected | 
27 | COCCNc1cc(NC(=O)N2CCCc3cc(-c4cnc(C)s4)c(C=O)nc32)ncc1C#N | < 10 | Metabolite_Detected | Metabolite_Detected | bioavailability [7]: 46%; clearance [8]: 8 mL/min/kg; Vd [9]: 1.5 L/kg; solubility at […] [4]: < 4 µM; half-life [10]: 3.5 h; AUC/dose [11]: 2174 nM·h; AUC/dose [12]: 4703 nM·h; solubility thermodynamic at […] [6]: < 6 µM
28 | Cc1cc2c(nc1C=O)N(C(=O)Nc1ccc(C#N)cn1)CCC2 | < 10 | Metabolite_Detected | Metabolite_Detected | 
29 | N#Cc1ccc(NC(=O)N2CCCc3cc(Cl)c(C=O)nc32)nc1 | < 10 | Metabolite_Detected | Metabolite_Detected | 
30 | O=Cc1ccc2c(n1)N(C(=O)Nc1ccc(C(F)(F)F)cn1)CCO2 | < 10 | Metabolite_Detected | Metabolite_Detected | 
31 | O=Cc1ccc2cccc(C(=O)Nc3ccc(C(F)(F)F)cn3)c2n1 |  |  |  | solubility thermodynamic at […] [6]: < 2.9 µM
32 | CC(C)COc1cc(N2CCC(N(C)C)CC2)ccc1Nc1ncc(C#N)c(N[C@H]2[C@@H](C(N)=O)[C@@H]3C=C[C@H]2C3)n1 | < 10 | Metabolite_Detected | Metabolite_Detected | 
33 | COCCNc1cc(NC(=O)N(CCOC)c2cccc(C=O)n2)ncc1C#N | < 10 | Metabolite_Detected | Metabolite_Detected | 
34 | C=CC(=O)Nc1ccccc1C(=O)Nc1cc(CCc2cc(OC)cc(OC)c2)[nH]n1 | < 10 | Metabolite_Detected | Metabolite_Detected | 
35 | COCCNc1cc(NC(=O)N(C)c2cccc(C=O)n2)ncc1C#N | < 10 | Metabolite_Detected | Metabolite_Detected | 
36 | N#Cc1ccc(NC(=O)N2CCCc3cc(N)c(C=O)nc32)nc1 | < 10 | Metabolite_Detected | Metabolite_Detected | 
37 | O=Cc1nc2c(C(=O)Nc3ccc(C(F)(F)F)cn3)cccc2cc1O | < 10 | Metabolite_Detected | Metabolite_Detected | 
38 | COC[C@@H](C)Nc1cc(NC(=O)N2CCCc3cc(CN4CCN(C)CC4=O)c(C=O)nc32)ncc1C#N |  |  |  | clearance [8]: 35 mL/min/kg
39 | COCCNc1cc(NC(=O)N2CCCc3cc(CN(C)C(C)=O)c(C=O)nc32)ncc1C#N |  |  |  | bioavailability [7]: 26%; clearance [8]: 16 mL/min/kg; Vd [9]: 8.6 L/kg; half-life [10]: 27.7 h; AUC/dose [11]: 599 nM·h; AUC/dose [12]: 2307 nM·h; solubility thermodynamic at […] [6]: 8 µM (≈ 3.72 µg/mL)
40 | COCCNc1cc(NC(=O)N2CCCc3cc(-n4cnc(C)c4)c(C=O)nc32)ncc1C#N | < 10 | Metabolite_Detected | Metabolite_Detected | solubility at […] [4]: < 4 µM
41 | COC[C@H](C)Nc1cc(NC(=O)N2CCCc3cc(CN4CCN(C)CC4=O)c(C=O)nc32)ncc1C#N |  |  |  | clearance [8]: 19 mL/min/kg
42 | COCCNc1cc(NC(=O)N(C)c2ccc(CN3CCN(C)CC3=O)c(C=O)n2)ncc1C#N |  |  |  | clearance [8]: 88 mL/min/kg
43 | CCN1CCN(c2ccc(Nc3cc(N(C)C(=O)Nc4c(Cl)c(OC)cc(OC)c4Cl)ncn3)cc2)CC1 [INFIGRATINIB] | < 10 | Metabolite_Detected | Metabolite_Detected | 
